Measurements published in patent US11292796B2 (SIGNAL PHARMACEUTICALS, LLC, priority 2008, dated 2022).

biological target: T1, mTOR (Homo sapiens, UniProt P42345); assay: mTOR HTR-FRET assay; format: biochemical; settings: read-out: Act. Level (IC50 in mTor HTR-FRET assay)
T1 construct: purchased Invitrogen PR8683A
Summary of the method: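 Test compounds, taken from 10 mM DMSO stocks and diluted, were mixed with mTOR enzyme (0.200 μg/mL) in Tris buffer pH 7.4 with 100 mM NaCl, 0.1% Tween-20 and 1 mM DTT. ATP/substrate addition initiated the reaction, alongside compound-free controls.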

T1 sequence (P42345 1360-2549 limits assumed): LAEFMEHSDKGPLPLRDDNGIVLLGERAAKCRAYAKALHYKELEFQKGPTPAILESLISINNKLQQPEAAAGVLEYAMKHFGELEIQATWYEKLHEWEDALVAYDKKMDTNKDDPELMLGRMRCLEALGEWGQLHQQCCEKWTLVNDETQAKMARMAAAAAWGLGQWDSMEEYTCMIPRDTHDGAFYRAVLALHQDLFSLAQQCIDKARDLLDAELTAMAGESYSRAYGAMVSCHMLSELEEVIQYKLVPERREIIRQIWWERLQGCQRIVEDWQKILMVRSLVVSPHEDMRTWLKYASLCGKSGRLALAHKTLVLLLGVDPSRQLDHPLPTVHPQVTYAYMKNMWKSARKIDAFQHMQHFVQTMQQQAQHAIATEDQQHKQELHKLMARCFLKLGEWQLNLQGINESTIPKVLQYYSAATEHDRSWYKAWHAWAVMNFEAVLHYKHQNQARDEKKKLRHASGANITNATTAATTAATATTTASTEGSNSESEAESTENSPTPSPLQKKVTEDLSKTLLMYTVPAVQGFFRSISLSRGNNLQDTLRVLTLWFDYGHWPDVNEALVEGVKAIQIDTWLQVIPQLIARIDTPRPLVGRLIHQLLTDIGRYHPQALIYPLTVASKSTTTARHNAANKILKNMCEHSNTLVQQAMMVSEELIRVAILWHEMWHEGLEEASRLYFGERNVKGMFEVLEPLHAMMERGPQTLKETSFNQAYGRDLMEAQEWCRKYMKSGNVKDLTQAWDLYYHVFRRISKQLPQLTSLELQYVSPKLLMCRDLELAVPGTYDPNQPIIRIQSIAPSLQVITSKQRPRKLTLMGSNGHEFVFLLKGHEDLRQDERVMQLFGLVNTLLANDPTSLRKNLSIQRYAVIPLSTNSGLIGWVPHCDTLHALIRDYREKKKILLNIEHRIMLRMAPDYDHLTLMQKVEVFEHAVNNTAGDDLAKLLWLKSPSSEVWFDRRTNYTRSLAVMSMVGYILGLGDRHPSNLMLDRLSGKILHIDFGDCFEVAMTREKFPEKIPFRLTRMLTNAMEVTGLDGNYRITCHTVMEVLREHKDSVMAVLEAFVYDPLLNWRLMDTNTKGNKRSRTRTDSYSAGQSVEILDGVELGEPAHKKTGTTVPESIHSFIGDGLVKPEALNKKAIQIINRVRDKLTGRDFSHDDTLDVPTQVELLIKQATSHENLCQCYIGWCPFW

First: CC(C)(O)c1ccc(-c2cnc3c(n2)N(C[C@@H]2CCCO2)CC(=O)N3)cn1 [Example 115, (S)-6-(6-(2-hydroxypropan-2-yl)pyridin-3-yl)-4-((tetrahydrofuran-2-yl)methyl)-3,4-dihydropyrazino[2,3-b]pyrazin-2(1H)-one]
Second: CO[C@@H]1CC[C@@H](CN2CC(=O)Nc3ncc(-c4ccc(C(C)(C)O)nc4)nc32)C1 [Example 54, 6-(6-(2-hydroxypropan-2-yl)pyridin-3-yl)-4-(((1R,3R)-3-methoxycyclopentyl)methyl)-3,4-dihydropyrazino[2,3-b]pyrazin-2(1H)-one]
The IC50 of the first is higher: 1000 to 10000 nM for the first, 0.005 to 250 nM for the second. The second is the more potent here.

`Cc1cc(-c2nc[nH]n2)c(F)cc1-c1cnc2c(n1)N([C@H]1CC[C@@H](O)CC1)C(=O)CN2` [Example 161, 7-(5-fluoro-2-methyl-4-(1H-1,2,4-triazol-3-yl)phenyl)-1-(cis-4-hydroxycyclohexyl)-3,4-dihydropyrazino[2,3-b]pyrazin-2(1H)-one] and `CO[C@H]1CC[C@H](N2C(=O)CNc3ncc(-c4cc(F)c(-c5nc[nH]n5)cc4C)nc32)CC1` [Example 173, 7-(5-fluoro-2-methyl-4-(1H-1,2,4-triazol-3-yl)phenyl)-1-(trans-4-methoxycyclohexyl)-3,4-dihydropyrazino[2,3-b]pyrazin-2(1H)-one] fall in the same range of IC50: 0.005 to 250 nM for the first, 0.005 to 250 nM for the second.

Compared with `CC(C)(O)c1ccc(-c2cnc3c(n2)N(CCN2CCOCC2)CC(=O)N3)cn1` [Example 123, 6-(6-(2-hydroxypropan-2-yl)pyridin-3-yl)-4-(2-morpholinoethyl)-3,4-dihydropyrazino[2,3-b]pyrazin-2(1H)-one], `CC(C)(O)c1ccc(-c2cnc3c(n2)N([C@H]2CCOC2)CC(=O)N3)cn1` [Example 130, (S)-6-(6-(2-hydroxypropan-2-yl)pyridin-3-yl)-4-(tetrahydrofuran-3-yl)-3,4-dihydropyrazino[2,3-b]pyrazin-2(1H)-one] is lower in IC50: 1000 to 10000 nM for the first, 500 to 1000 nM for the second.

`CO[C@H]1C[C@@H]2C(=O)Nc3ncc(-c4ccc(-c5nnc[nH]5)cc4C)nc3N2C1` [Example 112, 8-(4-(4H-1,2,4-triazol-3-yl)-2-methylphenyl)(2S,3aR)-2-methoxy-5,10,3a-trihydropyrazino[2,3-b]pyrrolidino[1,2-e]pyrazin-4-one] and `CO[C@H]1CC[C@H](N2CC(=O)Nc3ncc(-c4ccc(-c5nnc[nH]5)nc4C)nc32)C1` [Example 41, 4-((1S,3S)-3-methoxycyclopentyl)-6-(2-methyl-6-(4H-1,2,4-triazol-3-yl)pyridin-3-yl)-3,4-dihydropyrazino[2,3-b]pyrazin-2(1H)-one] fall in the same range of IC50: 0.005 to 250 nM for the first, 0.005 to 250 nM for the second.

First: Cc1cc(-c2nnc[nH]2)ccc1-c1cnc2c(n1)NC1(CCCC1)C(=O)N2 [Example 64, 7′-(2-methyl-4-(4H-1,2,4-triazol-3-yl)phenyl)-1′H-spiro[cyclopentane-1,2′-pyrazino[2,3-b]pyrazin]-3′(4′H)-one]
Second: COCCN1CC(=O)Nc2ncc(-c3ccc(-c4nnc[nH]4)c(F)c3)nc21 [Example 59, 6-(3-fluoro-4-(4H-1,2,4-triazol-3-yl)phenyl)-4-(2-methoxyethyl)-3,4-dihydropyrazino[2,3-b]pyrazin-2(1H)-one]
The IC50 of the first is higher: 250 to 500 nM for the first, 0.005 to 250 nM for the second. The second is the more potent here.

`CO[C@H]1CC[C@H](CN2CC(=O)Nc3ncc(-c4ccc(-c5nc[nH]n5)nc4)nc32)CC1` [Example 5] and `O=C1CNc2ncc(-c3ccc(-c4nc[nH]n4)nc3)nc2N1C[C@H]1CC[C@H](O)CC1` [Example 159, 7-(6-(1H-1,2,4-triazol-3-yl)pyridin-3-yl)-1-((trans-4-hydroxycyclohexyl)methyl)-3,4-dihydropyrazino[2,3-b]pyrazin-2(1H)-one] fall in the same range of IC50: 0.005 to 250 nM for the first, 0.005 to 250 nM for the second.

First: O=C1CNc2ncc(-c3ccc(O)nc3)nc2N1CCC1CCOCC1 [Example 185, 7-(6-hydroxypyridin-3-yl)-1-(2-(tetrahydro-2H-pyran-4-yl)ethyl)-3,4-dihydropyrazino[2,3-b]pyrazin-2(1H)-one]
Second: C[C@@H](O)c1ccc(-c2cnc3c(n2)N(CCC2CCOCC2)C(=O)CN3)cn1 [Example 254, (R)-7-(6-(1-hydroxyethyl)pyridin-3-yl)-1-(2-(tetrahydro-2H-pyran-4-yl)ethyl)-3,4-dihydropyrazino[2,3-b]pyrazin-2(1H)-one]
The IC50 of the first is higher: 1000 to 10000 nM for the first, 0.005 to 250 nM for the second.

First: O=C1CNc2ncc(-c3ccc(-c4nnc[nH]4)c(F)c3)nc2N1CCC1CCOCC1 [Example 243, 7-(3-fluoro-4-(4H-1,2,4-triazol-3-yl)phenyl)-1-(2-(tetrahydro-2H-pyran-4-yl)ethyl)-3,4-dihydropyrazino[2,3-b]pyrazin-2(1H)-one]
Second: O=C1CNc2ncc(-c3cccc4[nH]cnc34)nc2N1CCC1CCOCC1 [Example 156, 7-(1H-benzo[d]imidazol-4-yl)-1-(2-(tetrahydro-2H-pyran-4-yl)ethyl)-3,4-dihydropyrazino[2,3-b]pyrazin-2(1H)-one]
The IC50 of the first is lower: 0.005 to 250 nM for the first, 500 to 1000 nM for the second. The first is the more potent here.

`Cc1cc(-c2nc[nH]n2)c(F)cc1-c1cnc2c(n1)N(C[C@H]1CC[C@@H](O)CC1)C(=O)CN2` [Example 165, 7-(5-fluoro-2-methyl-4-(1H-1,2,4-triazol-3-yl)phenyl)-1-((cis-4-hydroxycyclohexyl)methyl)-3,4-dihydropyrazino[2,3-b]pyrazin-2(1H)-one] and `CO[C@H]1CC[C@@H](CN2C(=O)CNc3ncc(-c4cc(F)c(-c5nc[nH]n5)cc4C)nc32)CC1` [Example 153, 7-(5-fluoro-2-methyl-4-(1H-1,2,4-triazol-3-yl)phenyl)-1-((cis-4-methoxycyclohexyl)methyl)-3,4-dihydropyrazino[2,3-b]pyrazin-2(1H)-one] fall in the same range of IC50: 0.005 to 250 nM for the first, 0.005 to 250 nM for the second.

`O=C1CNc2ncc(-c3ccc(-c4nc[nH]n4)nc3)nc2N1[C@H]1CC[C@@H](O)CC1` [Example 160, 7-(6-(1H-1,2,4-triazol-3-yl)pyridin-3-yl)-1-(cis-4-hydroxycyclohexyl)-3,4-dihydropyrazino[2,3-b]pyrazin-2(1H)-one] and `O=C1CNc2ncc(-c3ccc(-c4nc[nH]n4)nc3)nc2N1C[C@H]1CC[C@@H](O)CC1` [Example 169, 7-(6-(1H-1,2,4-triazol-3-yl)pyridin-3-yl)-1-((cis-4-hydroxycyclohexyl)methyl)-3,4-dihydropyrazino[2,3-b]pyrazin-2(1H)-one] fall in the same range of IC50: 0.005 to 250 nM for the first, 0.005 to 250 nM for the second.

`COCCN1C(=O)CNc2ncc(-c3cnc(-c4nc[nH]n4)cc3C)nc21` [Example 240, 1-(2-methoxyethyl)-7-(4-methyl-6-(1H-1,2,4-triazol-3-yl)pyridin-3-yl)-3,4-dihydropyrazino[2,3-b]pyrazin-2(1H)-one] and `CCN1C(=O)CNc2ncc(-c3cc(F)c(-c4nc[nH]n4)cc3C)nc21` [Example 177, 1-ethyl-7-(5-fluoro-2-methyl-4-(1H-1,2,4-triazol-3-yl)phenyl)-3,4-dihydropyrazino[2,3-b]pyrazin-2(1H)-one] fall in the same range of IC50: 0.005 to 250 nM for the first, 0.005 to 250 nM for the second.

`O=C1Nc2ncc(-c3ccc(-c4nnc[nH]4)cc3)nc2N2CCOCC12` (stereo not drawn) [Example 119, 9-(4-(4H-1,2,4-triazol-3-yl)phenyl)-6,11,4a-trihydromorpholino[4,3-e]pyrazino[2,3-b]pyrazin-5-one] and `Cc1nc(-c2nnc[nH]2)ccc1-c1cnc2c(n1)N(Cc1cccc(C#N)c1)C(=O)CN2` [Example 203, 3-((7-(2-methyl-6-(4H-1,2,4-triazol-3-yl)pyridin-3-yl)-2-oxo-3,4-dihydropyrazino[2,3-b]pyrazin-1(2H)-yl)methyl)benzonitrile] fall in the same range of IC50: 0.005 to 250 nM for the first, 0.005 to 250 nM for the second.

First: CO[C@H]1CC[C@@H](N2CC(=O)Nc3ncc(-c4ccc(C(C)(C)O)nc4)nc32)C1 [Example 51, 6-(6-(2-hydroxypropan-2-yl)pyridin-3-yl)-4-((1R,3S)-3-methoxycyclopentyl)-3,4-dihydropyrazino[2,3-b]pyrazin-2(1H)-one]
Second: CC(C)(O)c1ccc(-c2cnc3c(n2)N(C2CCNCC2)CC(=O)N3)cn1 [Example 108, 6-(6-(2-hydroxypropan-2-yl)pyridin-3-yl)-4-(piperidin-4-yl)-3,4-dihydropyrazino[2,3-b]pyrazin-2(1H)-one]
The IC50 of the first is lower: 0.005 to 250 nM for the first, 1000 to 10000 nM for the second. The first is the more potent here.

Compared with `CO[C@H]1CC[C@H](N2CC(=O)Nc3ncc(-c4ccc(C(C)(C)O)nc4C)nc32)CC1` [Example 82, 6-(6-(2-hydroxypropan-2-yl)-2-methylpyridin-3-yl)-4-(trans-4-methoxycyclohexyl)-3,4-dihydropyrazino[2,3-b]pyrazin-2(1H)-one], `CO[C@H]1CC[C@H](N2C(=O)CNc3ncc(-c4ccc(C(C)(C)O)[n+]([O-])c4)nc32)CC1` [Example 198, 2-(2-hydroxypropan-2-yl)-5-(8-(trans-4-methoxycyclohexyl)-7-oxo-5,6,7,8-tetrahydropyrazino[2,3-b]pyrazin-2-yl)pyridine 1-oxide] is higher in IC50: 250 to 500 nM for the first, 1000 to 10000 nM for the second.

First: CNc1nc2c(C)cc(-c3cnc4c(n3)N(CC3CCOCC3)C(=O)CN4)cc2[nH]1 [Example 263, 7-(4-methyl-2-(methylamino)-1H-benzo[d]imidazol-6-yl)-1-((tetrahydro-2H-pyran-4-yl)methyl)-3,4-dihydropyrazino[2,3-b]pyrazin-2(1H)-one]
Second: O=C1CNc2ncc(-c3cn[nH]c3)nc2N1CCC1CCOCC1 [Example 201, 7-(1H-pyrazol-4-yl)-1-(2-(tetrahydro-2H-pyran-4-yl)ethyl)-3,4-dihydropyrazino[2,3-b]pyrazin-2(1H)-one]
The IC50 of the first is lower: 0.005 to 250 nM for the first, 1000 to 10000 nM for the second.

`O=C1CN(CCC2CCOCC2)c2nc(-c3ccc4cn[nH]c4c3)cnc2N1` [Example 37, 6-(1H-indazol-6-yl)-4-(2-(tetrahydro-2H-pyran-4-yl)ethyl)-3,4-dihydropyrazino[2,3-b]pyrazin-2(1H)-one] and `COCCN1C(=O)CNc2ncc(-c3cccc4[nH]ncc34)nc21` [Example 188, 7-(1H-indazol-4-yl)-1-(2-methoxyethyl)-3,4-dihydropyrazino[2,3-b]pyrazin-2(1H)-one] fall in the same range of IC50: 1000 to 10000 nM for the first, 1000 to 10000 nM for the second.

Work on `CC(C)(O)c1ccc(-c2cnc3c(n2)N(Cc2cccc(C(F)(F)F)c2)CC(=O)N3)cn1` [Example 137, 6-(6-(2-hydroxypropan-2-yl)pyridin-3-yl)-4-(3-(trifluoromethyl)benzyl)-3,4-dihydropyrazino[2,3-b]pyrazin-2(1H)-one] yielded an IC50 of 0.005 to 250 nM.
